Assay results taken from paper PMC7259600, “The crystal structures of Thermus thermophilus CMP kinase complexed with a phosphoryl group acceptor and donor” (PLoS ONE, 2020).

Tests used:
[1] = target: T1, ttCMPK (CMP kinase of Thermus thermophilus HB8) (Thermus thermophilus, UniProt Q5SL35); test: X-ray crystal structure of the ternary complex (crystal soaked with CMP, ATP and GdCl3); type: binding; conditions: with CDP and Gd3+; 1.6 A, closed form; phosphoryl donor site
T1 construct: gene cmk; full-length, expressed from pET-11a (NdeI/BamHI) in E. coli BL21(DE3), no tag mentioned; SeMet-labelled protein for the CMP open form; residue numbers up to 209
T1 sequence (Q5SL35 1-208): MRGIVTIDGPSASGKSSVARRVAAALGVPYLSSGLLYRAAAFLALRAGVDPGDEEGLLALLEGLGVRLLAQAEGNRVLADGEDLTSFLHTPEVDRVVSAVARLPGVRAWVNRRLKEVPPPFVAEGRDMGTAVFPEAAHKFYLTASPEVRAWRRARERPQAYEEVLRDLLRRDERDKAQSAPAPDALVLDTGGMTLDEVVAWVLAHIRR

[2] = target: T1, ttCMPK (CMP kinase of Thermus thermophilus HB8); test: X-ray crystal structure of the complex (co-crystallisation); type: binding; conditions: closed form 1.5 A (3AKE; AMP-PCP and MgCl2 in drop, no AMP-PCP density); open form 2.2 A (3W8N; SeMet protein, MgCl2); phosphoryl acceptor site

Row | Compound | X-ray crystal structure of the ternary complex (crystal soaked with CMP, ATP and) [1] | X-ray crystal structure of the complex (co-crystallisation) [2]
1 | Nc1ncnc2c1ncn2[C@@H]1O[C@H](COP(=O)(O)OP(=O)(O)O)[C@@H](O)[C@H]1O [ADP] | ADP is recognized by several residues from both the CORE and LID domains | –
2 | Nc1ccn([C@@H]2O[C@H](COP(=O)(O)O)[C@@H](O)[C@H]2O)c(=O)n1 [CMP] | – | 3W8N (CMP "open" complex), 3AKE (CMP "closed" complex)
